# Laboratory results published in US9278065B2, “Delivery systems for solubilising water-insoluble pharmaceutical active ingredients” (EMS S/A, priority 2007, dated 2016).
# Test: Particle size (Z-average) of the formulation mixed with water 1:50
# Type: physicochemical
# Protocol: The formulation according to present invention is prepared when the non-ionic surfactant mixture is thoroughly mixed with the solution of the active ingredient in the water-miscible organic solvent/co-solvent.
# The present invention will now be illustrated by the following examples. It is understood, however, that such examples are provided for illustration only, and the invention is not intended to be limited by the examples. The formulation based on the system employed in the examples can be formed by any suitable method known in the art. In the examples the formulation was mixed with water at a ratio of 1:50 formulation: water to generate the system and measure the particle size formed in water. The particle size was measured by the method described in Pharmacopea Forum—2001 vol 27 (4) page 2724.
Structure (SMILES),"increase of particle Z-average (10% tioconazole formulation omitting DEGEE, compared with complete formulation containing DEGEE, PEG Oleate, polyethoxylated castor oil)","particle size of emulsion (10% tioconazole formulation omitting polyethoxylated castor oil, diluted 1:50 in water)","Z-average (0.5% tacrolimus in ethanol with DEGEE / PEG Oleate / polyethoxylated castor oil as per Table 3, diluted 1:50 in water)"
Clc1ccc(C(Cn2ccnc2)OCc2ccsc2Cl)c(Cl)c1 (stereo not drawn) [Tioconazole],10%,450 nm,–
C=CC[C@@H]1/C=C(\C)C[C@H](C)C[C@H](OC)[C@H]2O[C@@](O)(C(=O)C(=O)N3CCCC[C@H]3C(=O)O[C@H](/C(C)=C/[C@@H]3CC[C@@H](O)[C@H](OC)C3)[C@H](C)[C@@H](O)CC1=O)[C@H](C)C[C@@H]2OC [tacrolimus],–,–,32 nm
